Source: patent US5491166A, “Inhibitors of HIV protease useful for the treatment of AIDS” (Eli Lilly and Company, priority 1992, dated 1996)

Biological target: T1, HIV-1 protease (Human immunodeficiency virus type 1 group M subtype B, UniProt P04585)
T1 construct: Purified HIV-1 protease was obtained as described above; made in house; host or cells: E. coli K12 L507/pHP10D
Experiment: biochemical
Conditions: for IC50: read-out: Fluorescence Assay IC50 (converted); for Fluorescence Assay IC50: All values normalized to a positive control, 1 h pre-incubation, 16 h with substrate at room temperature, *concentration of the compound was not increased above the reported concentration
Experimental: A culture of E. coli K12 L507/pHP10D was grown to mid-log phase at 32° C. in LB media containing 12.5 μg/ml tetracycline. The cultivation temperature was quickly elevated to 40° C. to induce gene expression, and the cells were allowed to grow for 2.5 hours at this temperature before the culture was quickly chilled on ice. The cells were centrifuged and the cell pellet was resuspended in 20 mL 50 mmol MES buffer (pH 6.0) containing 1 mmol EDTA, 1 mmol DTT, 1 mmol PMSF and 10% glycerol ("Buffer A"). Cells were lysed by sonication using a Fischer Model 300 Dismembrator and a microtip probe. Following centrifugation at 27,000×g, the supernatant was diluted to a total volume of 60 mL with Buffer A and loaded onto a 2.0×19 cm QAE-Sepharose column (1 mL/min, 4° C.), that had been equilibrated in Buffer A. The column was washed isocratically for 180 min and then eluted with a gradient eluent of 0-1.0M sodium chloride in Buffer A over 120 min. Enzymatic activity was measured by HPLC using the synthetic peptide SQNYPIV as described in Margolin et al., Biochem, Biophys. Res. Commun., 167, 554-560 (1990); the production of the p1 peptide (SQNY) was measured.
The active fractions were combined, made 1.2M in ammonium sulfate, and applied to a 2.0×18 cm hexyl agarose column that had been equilibrated in Buffer A containing 1.2M ammonium sulfate. The sample was loaded at a flow rate of 1 mL/min at 4° C., washed with the equilibration buffer for 240 min (1 mL/min) and then eluted using a reverse linear gradient of 1.2-0M ammonium sulfate in Buffer A for 120 min at the same flow rate. The column was then washed isocratically in Buffer A for 120 min.
The active fractions were combined, concentrated to 10 mL using an Amicon stirred cell with a YM-10 membrane and then applied to a MonoS cation exchange column (1.0×10 cm) that had been equilibrated in Buffer A. The sample was loaded at a flow rate of 1 mL/min at 25° C. After washing isocratically for 30 min, the protease was eluted using a linear gradient of 0-0.45M sodium chloride in Buffer A over 40 min.. The column was washed isocratically in Buffer A containing 0.45M sodium chloride for 30 min.
The active fractions were combined and concentrated to 200 μL using an Amicon stirred cell and a YM-10 membrane and then the protease was applied to a Superose 6 size exclusion column equilibrated in Buffer A containing 0.1M sodium chloride.
The purified peptide was labeled with a fluorescent marker at the C-terminal end for use in the Pandex assay. N^α -Biotin-[…]OH (1.206 g, 0.936 mmol) was dissolved in 100 mL of 0.1M sodium borate, pH 9.5. Then, a solution of 3 g (7.7 mmol) of fluorescein isothiocyanate in 15 mL dimethyl sulfoxide was added to the reaction mixture in 10 equal portions over two hours. The resulting mixture was allowed to react for one hour after the final addition. The solution was adjusted to pH 3 using 5N HCl, resulting in the formation of a precipitate which was removed by centrifugation.
The following buffers and solutions are used in the Fluorescence HIV-1 Protease Inhibitor Assay:
0.05M 4-morpholineethane sulfonic acid, pH 5.5
0.1% solution of Fluoricon Avidin Assay Particles (Avidin conjugated to solid polystyrene beads, 0.6-0.8 microns in diameter in TBSA Buffer
27 IU/mL of purified HIV-1 protease in MES-ALB buffer (1 IU equals the amount of enzyme required to hydrolyze 1 μmole of substrate per minute at 37° C.
To each well of a round bottom, 96-well plate is added 20 μL of the Enzyme Solution followed by 10 μL of the compound to be evaluated in a 20% aqueous dimethylsulfoxide solution. Purified HIV-1 protease was obtained as described above.

Molecule | IC50 [nM] | other results
CC(C)(C)NC(=O)c1ccccc1C[C@@H](O)[C@H](Cc1ccccc1)NC(=O)[C@H](CC#N)NC(=O)NCc1cccc2ccccc12 (relative stereo) [Example 1, [2R-(2R*, 3S*, 6S*)]-N-t-Butyl-2-[2-hydroxy-3-phenylmethyl-4,7,9-triaza-5,8-dioxo-6-cyanomethyl-10-naphth-1-yl]decyl benzamide] | 0.645 | 
CN1Cc2ccccc2CC1C(=O)N[C@@H](CC#N)C(=O)N[C@@H](Cc1ccccc1)[C@H](O)Cc1ccccc1C(=O)NC(C)(C)C (relative stereo) [Example 3, R-(2R *, 3S*, 6S*)-N-t-Butyl-2-[2-hydroxy-3-phenylmethyl-4,7-diaza-5,8-dioxo-6-cyanomethyl-8-(2-methyl-1,2,3,4-tetrahydroisoquinolin-3-yl]octylbenzamide] | 89.5 | 
CC(C)(C)NC(=O)c1ccccc1C[C@@H](O)[C@H](Cc1ccccc1)NC(=O)[C@@H](CC(=O)OCc1ccccc1)NC(=O)OCc1ccccc1 (relative stereo) [Example 9, [2R-(2R *, 3S*, 6R*)]-N-t-Butyl-2-[2-hydroxy-3-phenylmethyl-4-aza-5-oxo-6-N(benzyloxycarbonyl)amino-7-benzyloxycarbonyl]heptyl benzamide] |  | Fluorescence Assay IC50: > 1 µg/mL
CC(C)(C)NC(=O)c1ccccc1C[C@@H](O)[C@H](Cc1ccccc1)NC(=O)[C@H](CC(=O)OCc1ccccc1)NC(=O)OCc1ccccc1 [Example 6, [2R-(2R*, 3S*, 6S*)]-N-t-Butyl-2-[2-hydroxy-3-phenylmethyl-4-aza-5-oxo-6-N(benzyloxycarbonyl)amino-7-benzyloxycarbonyl]heptyl benzamide] | 10.6 | 
CC(C)(C)NC(=O)c1ccccc1C[C@@H](O)[C@H](Cc1ccccc1)NC(=O)[C@H](CC(=O)OCc1ccccc1)NC(=O)c1ccc2ccccc2n1 [Example 7, [2R-(2R*,3S*,6S*)]-N-t-Butyl-2-[2-hydroxy-3-phenylmethyl-4-aza-5-oxo-6-N(quinolin-2-ylcarbonyl)amino-7-benzyloxycarbony]heptyl benzamide] | 0.856 | 
CC(C)(C)NC(=O)c1ccccc1C[C@@H](O)[C@H](Cc1ccccc1)NC(=O)[C@@H](CC(=O)OCc1ccccc1)NC(=O)OC(C)(C)C [Example 11, [2R-(2R *, 3S*, 6S*)]-N-t-butyl-2-[2-hydroxy-3-phenylmethyl-4-aza-5-oxo-6-N(t-butoxycarbonyl)amino-7-benzyloxycarbonyl]heptyl benzamide] |  | IC8 (read-out: Fluorescence Assay IC8): 1 µg/mL
[2R-(2R*, 3S*, 6S*)]-N-t-Butyl-2-[2-hydroxy-3-phenylmethyl-4,7-diaza-5,8-dioxo-6-cyanomethyl-9-N(methyl)aza-10-quinolin-2-yl]decyl benzamide [Example 4] |  | Fluorescence Assay IC50: 0.0012 µg/mL

Now from value to molecule, other results behind:

IC50 [nM] | Molecule | other results
2.79 | CN(C)CCNC(=O)C[C@H](NC(=O)c1ccc2ccccc2n1)C(=O)N[C@@H](Cc1ccccc1)[C@H](O)Cc1ccccc1C(=O)NC(C)(C)C (relative stereo) [Example 15, [2R -(2R*,3S*,6S*)]-N-t-Butyl-2-[2-hydroxy-3-phenylmethyl-4-aza-5,8-dioxo-6-N(quinolin-2-ylcarbonyl)amino-8-N(2-(N, N-dimethylamino)ethyl)amino]octyl benzamide] | 
1.86 | CC(C)(C)NC(=O)c1ccccc1C[C@@H](O)[C@H](Cc1ccccc1)NC(=O)[C@H](CC#N)NC(=O)c1ccc2ccccc2n1 [Example 2, [2R-(2R *, 3S*, 6S*)]-N-t-Butyl-2-[2-hydroxy-3-phenylmethyl-4,7-diaza-5,8-dioxo-6-cyanomethyl-8-quinolin-2-yl]octyl benzamide] | 
> 1430 | CC(C)(C)NC(=O)c1ccccc1C[C@@H](O)[C@H](Cc1ccccc1)NC(=O)[C@@H](CC(=O)OCc1ccccc1)NC(=O)c1ccc2ccccc2n1 [Example 8, [2R-(2R*,3S*,6R*)]-N-t-Butyl-2-[2-hydroxy-3-phenylmethyl-4-aza-5-oxo-6-N(quinolin-2-ylcarbonyl)amino-7-benzyloxycarbonyl]heptyl benzamide] | 
1.85 | CC(C)(C)NC(=O)c1ccccc1C[C@@H](O)[C@H](Cc1ccccc1)NC(=O)[C@H](CC(=O)OCc1ccccn1)NC(=O)c1ccc2ccccc2n1 [Example 10, [2R-(2R*,3S*,6S*)]-N-t-Butyl-2-[2-hydroxy-3-phenylmethyl-4-aza-5-oxo-6-N(quinolin-2-ylcarbonyl)amino-7-(pyrid-2-ylmethoxycarbonyl)]heptyl benzamide] | 
0.782 | CONC(=O)C[C@H](NC(=O)c1ccc2ccccc2n1)C(=O)N[C@@H](Cc1ccccc1)[C@H](O)Cc1ccccc1C(=O)NC(C)(C)C [Example 12, [2R-(2R*, 3S*, 6S*)]-N-t-Butyl-2-[2-hydroxy-3-phenylmethyl-4-aza-5-oxo-6-N(quinolin-2-ylcarbonyl)amino-8-N(methoxy)carbamoyl]heptyl benzamide] | 
1.12 | CC(C)(C)NC(=O)c1ccccc1C[C@@H](O)[C@H](Cc1ccccc1)NC(=O)[C@H](CC(=O)NN)NC(=O)c1ccc2ccccc2n1 [Example 13, [2R-(2R*, 3S*, 6S*)]-N-t-Butyl-2-[2-hydroxy-3-phenylmethyl-4-aza-5,8-dioxo-6-N(quinolin-2-ylcarbonyl)amino-8-hydrazino]octyl benzamide] | 
4.18 | CC(C)(C)NC(=O)c1ccccc1C[C@@H](O)[C@H](Cc1ccccc1)NC(=O)[C@H](CS(N)(=O)=O)NC(=O)c1ccc2ccccc2n1 [Example 14, [2R-(2R*,3S*,6R*)]-N-t-Butyl-2-[2-hydroxy-3-phenylmethyl-4-aza-5-oxo-6-N(quinolin-2-ylcarbonyl)amino-7-aminosulfonyl]heptyl benzamide] | 
